Measurements: the NIST ThermoML archive (doi:10.1016/j.fluid.2013.01.004)
± gives the expanded uncertainty stated by the source.

How the values were obtained:
[1] = wn = mass fraction of the nth substance listed; conditions: 323.15 K, 101 kPa, Liquid, Pycnometric method
[2] = refractive index (Na D-line) (dimensionless); wn = mass fraction of the nth substance listed; conditions: 323.15 K, 101 kPa, Liquid, Standard Abbe refractometry

SMILES	mass density ([1]; w1 = 0.5202)	refractive index ([2]; w1 = 0.5202)	mass density ([1]; w1 = 0.338)	refractive index ([2]; w1 = 0.338)
[Br-].[Br-].[Mg+2] [magnesium bromide (MgBr2)] + O	1662.2 ± 9.3 kg/m3	1.462 ± 0.0013		
O=S(=O)([O-])[O-].[Mg+2] [magnesium sulfate] + O			1387.2 ± 2.1 kg/m3	1.3982 ± 0.0012
